Measurements as given in PubChem BioAssay (NCI).
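Five compound concentrations were applied to cells in 96-well plates for 48 hours; endpoints were derived by simple linear interpolation of the resulting dose-response curve. Abbreviation: GI50, concentration required for 50% inhibition of growth. The concentration for full growth arrest is given as TGI.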

Legend:
Experiment in all cases: growth of human tumour cells (NCI), 48 h
[1] = test system: BT-549 breast
[2] = test system: UACC-62 melanoma
[3] = test system: HOP-62 NSCLC
[4] = test system: COLO 205 colon
[5] = test system: T-47D breast
[6] = test system: HOP-92 NSCLC
[7] = test system: SF-268 CNS
[8] = test system: HCT-15 colon
[9] = test system: NCI-H460 lung
[10] = test system: KM12 colon
[11] = test system: OVCAR-4 ovarian
[12] = test system: HL-60(TB) leukemia
[13] = test system: SK-MEL-28 melanoma
[14] = test system: OVCAR-8 ovarian
[15] = test system: SNB-19 CNS
[16] = test system: SF-539 CNS
[17] = test system: NCI-H23 lung
[18] = test system: MDA-MB-435
[19] = test system: MCF7 breast
[20] = test system: PC-3 prostate
[21] = test system: DU-145 prostate
[22] = test system: HS 578T breast
[23] = test system: OVCAR-5 ovarian
[24] = test system: UO-31 renal
[25] = test system: MDA-MB-231 breast
[26] = test system: U251 CNS
[27] = test system: HCT-116 colon
[28] = test system: K-562 leukemia
[29] = test system: EKVX NSCLC
[30] = test system: M14 melanoma
[31] = test system: MALME-3M melanoma
[32] = test system: RPMI-8226 leukemia
[33] = test system: CAKI-1 renal
[34] = test system: NCI-H522 lung
[35] = test system: RXF 393 renal
[36] = test system: SK-MEL-2 melanoma
[37] = test system: OVCAR-3 ovarian
[38] = test system: CCRF-CEM leukemia
[39] = test system: SK-MEL-5 melanoma
[40] = test system: HT29 colon
[41] = test system: MOLT-4 leukemia
[42] = test system: ACHN renal
[43] = test system: SK-OV-3 ovarian
[44] = test system: SR leukemia
[45] = test system: SNB-75 CNS
[46] = test system: NCI/ADR-RES ovarian
[47] = test system: UACC-257 melanoma
[48] = test system: TK-10 renal
[49] = test system: NCI-H226 lung
[50] = test system: SW-620 colon
[51] = test system: SF-295 CNS
[52] = test system: IGROV1 ovarian
[53] = test system: 786-0 renal
[54] = test system: A549 NSCLC
[55] = test system: LOX IMVI melanoma
[56] = test system: SN12C renal
[57] = test system: HCC-2998 colon
[58] = test system: A498 renal

O=C1c2cccnc2C(=O)c2c1c(C(=O)OCCCN1CCCCC1)c1ccccn21
GI50 [1]: 108 nM
TGI [1]: 2780 nM
GI50 [2]: < 10 nM
TGI [2]: 47.8 nM
GI50 [3]: < 10 nM
TGI [3]: 20.3 nM
GI50 [4]: < 12.8 nM
TGI [4]: 30.3 nM
GI50 [5]: 1100 nM
TGI [5]: 21.5 µM
GI50 [6]: 51.2 nM
TGI [6]: 913 nM
GI50 [7]: < 10 nM
TGI [7]: 207 nM
GI50 [8]: 10 nM
TGI [8]: 422 nM
GI50 [9]: < 10 nM
TGI [9]: 12.2 nM
GI50 [10]: < 18.5 nM
TGI [10]: 165 nM
GI50 [11]: 280 nM
TGI [11]: 2 µM
GI50 [12]: 122 nM
TGI [12]: 7.5 µM
GI50 [13]: 34 nM
TGI [13]: 3.74 µM
GI50 [14]: 10.2 nM
TGI [14]: 1190 nM
GI50 [15]: < 10 nM
TGI [15]: 1830 nM
GI50 [16]: < 10.6 nM
TGI [16]: 43.5 nM
GI50 [17]: < 10 nM
TGI [17]: 26 nM
GI50 [18]: 14.2 nM
TGI [18]: 41.7 nM
GI50 [19]: < 10 nM
TGI [19]: < 0.015 µM
GI50 [20]: < 18.3 nM
TGI [20]: 389 nM
GI50 [21]: < 10 nM
TGI [21]: 1290 nM
GI50 [22]: < 17.8 nM
TGI [22]: 0.132 µM
GI50 [23]: 34.4 nM
TGI [23]: 1.83 µM
GI50 [24]: < 10 nM
TGI [24]: < 10 nM
GI50 [25]: 717 nM
TGI [25]: 13.9 µM
GI50 [26]: < 10 nM
TGI [26]: 37.2 nM
GI50 [27]: < 10.6 nM
TGI [27]: 275 nM
GI50 [28]: < 14.4 nM
GI50 [29]: 35.1 nM
TGI [29]: 253 nM
GI50 [30]: < 10 nM
TGI [30]: 38.4 nM
GI50 [31]: < 15.8 nM
TGI [31]: 68.2 nM
GI50 [32]: 60.9 nM
GI50 [33]: < 10 nM
TGI [33]: 105 nM
GI50 [34]: < 10 nM
TGI [34]: < 15.6 nM
GI50 [35]: < 10.8 nM
TGI [35]: < 0.019 µM
GI50 [36]: 30.3 nM
TGI [36]: 80.8 nM
GI50 [37]: < 21.8 nM
TGI [37]: 156 nM
GI50 [38]: 70.6 nM
GI50 [39]: < 14.3 nM
TGI [39]: 46.6 nM
GI50 [40]: 29.5 nM
TGI [40]: 665 nM
GI50 [41]: 100 nM
TGI [41]: > 36.4 µM
GI50 [42]: < 10 nM
TGI [42]: 17.1 nM
GI50 [43]: < 10 nM
TGI [43]: < 0.0199 µM
GI50 [44]: < 10 nM
TGI [44]: > 100 µM
GI50 [45]: < 10 nM
TGI [45]: < 18.7 nM
GI50 [46]: < 10 nM
TGI [46]: 225 nM
GI50 [47]: < 10 nM
TGI [47]: 54.9 nM
GI50 [48]: 27.2 nM
TGI [48]: 4.18 µM
GI50 [49]: < 10 nM
TGI [49]: 31.8 nM
GI50 [50]: < 10 nM
TGI [50]: < 0.0192 µM
GI50 [51]: 10 nM
TGI [51]: 38.3 nM
GI50 [52]: 30.9 nM
TGI [52]: 686 nM
GI50 [53]: < 10 nM
TGI [53]: < 0.01 µM
GI50 [54]: < 10 nM
TGI [54]: < 0.0182 µM
GI50 [55]: < 10 nM
TGI [55]: < 10 nM

COc1ccc(-c2c3c(nc4n[nH]c(-c5ccc(Cl)cc5)c24)-c2ccccc2C(=O)C3=O)cc1
GI50 [1]: 1410 nM
TGI [1]: 2890 nM
GI50 [2]: 1590 nM
TGI [2]: 3850 nM
GI50 [3]: 1560 nM
TGI [3]: 2960 nM
GI50 [4]: 1570 nM
TGI [4]: 2990 nM
GI50 [5]: 1030 nM
TGI [5]: 9.47 µM
GI50 [6]: 1180 nM
TGI [6]: 3170 nM
GI50 [7]: 1400 nM
TGI [7]: 2990 nM
GI50 [9]: 1520 nM
TGI [9]: 3240 nM
GI50 [56]: 1660 nM
TGI [56]: 3.82 µM
GI50 [10]: 1620 nM
TGI [10]: 3160 nM
GI50 [11]: 1700 nM
TGI [11]: 15.9 µM
GI50 [12]: 3080 nM
TGI [12]: 28.1 µM
GI50 [13]: 1840 nM
TGI [13]: 3.9 µM
GI50 [14]: 1590 nM
TGI [14]: 3440 nM
GI50 [57]: 1730 nM
TGI [57]: 3.19 µM
GI50 [15]: 1830 nM
TGI [15]: 3700 nM
GI50 [16]: 1700 nM
TGI [16]: 3470 nM
GI50 [17]: 1640 nM
TGI [17]: 4740 nM
GI50 [18]: 1540 nM
TGI [18]: 3430 nM
GI50 [19]: 1460 nM
TGI [19]: 5.7 µM
GI50 [20]: 1220 nM
TGI [20]: 3710 nM
GI50 [21]: 1590 nM
TGI [21]: 2960 nM
GI50 [22]: 1850 nM
TGI [22]: 8.14 µM
GI50 [23]: 2150 nM
TGI [23]: 4.79 µM
GI50 [24]: 1170 nM
TGI [24]: 2900 nM
GI50 [25]: 1600 nM
TGI [25]: 5.3 µM
GI50 [26]: 1460 nM
TGI [26]: 2810 nM
GI50 [27]: 1010 nM
TGI [27]: 2480 nM
GI50 [28]: 1580 nM
TGI [28]: > 100 µM
GI50 [29]: 1640 nM
TGI [29]: 4430 nM
GI50 [30]: 1710 nM
TGI [30]: 3480 nM
GI50 [31]: 750 nM
TGI [31]: 2810 nM
GI50 [32]: 1720 nM
TGI [32]: 7.15 µM
GI50 [33]: 1620 nM
TGI [33]: 4380 nM
GI50 [34]: 1430 nM
TGI [34]: 2990 nM
GI50 [35]: 1500 nM
TGI [35]: 3.1 µM
GI50 [36]: 1560 nM
TGI [36]: 3300 nM
GI50 [37]: 1280 nM
TGI [37]: 4330 nM
GI50 [38]: 2550 nM
TGI [38]: > 100 µM
GI50 [39]: 1510 nM
TGI [39]: 2840 nM
GI50 [40]: 1870 nM
TGI [40]: 3400 nM
GI50 [41]: 2440 nM
TGI [41]: 14.9 µM
GI50 [42]: 1460 nM
TGI [42]: 3300 nM
GI50 [43]: 1680 nM
TGI [43]: 3.23 µM
GI50 [44]: 2570 nM
TGI [44]: > 100 µM
GI50 [45]: 1190 nM
TGI [45]: 2760 nM
GI50 [58]: 3.72 µM
TGI [58]: 17.6 µM
GI50 [46]: 2640 nM
TGI [46]: > 100000 nM
GI50 [47]: 1570 nM
TGI [47]: 2950 nM
GI50 [48]: 1800 nM
TGI [48]: 3.32 µM
GI50 [50]: 1600 nM
TGI [50]: 3.03 µM
GI50 [51]: 1900 nM
TGI [51]: 4320 nM
GI50 [52]: 1540 nM
TGI [52]: 3220 nM
GI50 [53]: 2010 nM
TGI [53]: 4.59 µM
GI50 [54]: 1830 nM
TGI [54]: 3.54 µM
